What all share (assay type): cell-based
Assay [1] deals with Serrtia liquefaciens SL/326 A. As to the kind of experiment: MIC on beta-lactamase producing strain Serratia liquefaciens SL/326 A (Table IV). The protocol:
(§1) To evaluate the stability of these products towards beta-lactamases, their MIC was determined on isogenic strains producing and not producing beta-lactamases.
(§2) The results are expressed in μg/ml in Table IV.

For the next assay, the system named is Klebsiella RO 30. The assay can be described thus: MIC, in vitro dilution method, Klebsiella RO 30 (Table III). The conditions noted are these: RO30. The essentials:
(§3)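 Compounds are serially diluted in vitro and tested for bacteriostatic effect on each Gram-negative strain; the lowest inhibiting concentration is recorded as MIC (μg/ml).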

For the next assay, the system named is Citrobacter RL 49. The assay can be described thus: MIC, in vitro dilution method, Citrobacter RL 49 (Table III). As to conditions: RL49. The procedure, abridged:
as §3

Assay [2] has as its system Proteus vulgaris RL 99 bis. The assay can be described thus: MIC, in vitro dilution method, Proteus vulgaris RL 99 bis (Table III). The conditions noted are these: RL99BIS. The procedure, abridged: as §3
For another assay, the system named is Enterobacter RO 154. As to the kind of experiment: MIC, in vitro dilution method, Enterobacter RO 154 (Table III). As to conditions: RO154. The essentials:
as §3

A further assay has as its system Escherichia coli 255. As to the kind of experiment: MIC on beta-lactamase producing strain Escherichia coli 255 (Table IV). The conditions noted are these: Escherichia coli 255, producing beta-lactamases; read-out: MIC. The protocol: as §1, §2
Assay [3] deals with Serrtia liquefaciens SL 1326 S. The assay can be described thus: MIC on strain not producing beta-lactamase, Serratia liquefaciens SL 1326 S (Table IV). As to conditions: SL1326S, not producing beta-lactamases. The protocol:
as §1, §2

The test system of assay [4] is Proteus vulgaris GN 76/C.1/3. As to the kind of experiment: MIC on strain not producing beta-lactamase, Proteus vulgaris GN 76/C.1/3 (Table IV). The conditions noted are these: GN76, not producing beta-lactamases. As to the method:
as §1, §2

In the next assay the test system is Escherichia coli SOL 90. As to the kind of experiment: MIC, in vitro dilution method, Escherichia coli SOL 90 (Table III). The conditions noted are these: SOL90. The procedure, abridged:
as §3

The next assay concerns Escherichia coli 255/L.7. As to the kind of experiment: MIC on strain not producing beta-lactamase, Escherichia coli 255/L.7 (Table IV). As to conditions: Escherichia coli 255/L.7 *, not producing beta-lactamases; read-out: MIC. The protocol:
as §1, §2

Another assay deals with Pseudomonas RL 112. As to the kind of experiment: MIC, in vitro dilution method, Pseudomonas RL 112 (Table III). As to conditions: RL112. The essentials:
as §3

The next assay relates to Serratia RL 72. The assay can be described thus: MIC, in vitro dilution method, Serratia RL 72 (Table III). The conditions noted are these: RL72. The essentials: as §3
Assay [5] concerns Proteus vulgaris GN 76/C.1. The assay can be described thus: MIC on beta-lactamase producing strain Proteus vulgaris GN 76/C.1 (Table IV). As to conditions: GN76. The protocol: as §1, §2
[6] abbreviates: Klebsiella RO 30, dilution method, read-out: MIC.
Where [7] appears, read: Citrobacter RL 49, dilution method, read-out: MIC.
Where [8] appears, read: Proteus vulgaris RL 99 bis, dilution method, read-out: MIC.
Setting [9] is: Enterobacter RO 154, dilution method, read-out: MIC.
The mark [10] stands for this setting: Escherichia coli SOL 90, dilution method, read-out: MIC.
The mark [11] stands for this setting: Proteus vulgaris GN 76/C.1, producing beta-lactamases, read-out: MIC.

Converted amounts (≈) assume the structure as drawn. Read-outs that look alike come from different tables or passages of the source.

As for `CC(C)(O/N=C(\C(=O)NC1C(=O)N2C(C(=O)O)=C(COC(=O)c3cccc(CN)c3)C[S+]([O-])C12)c1csc(N)n1)C(=O)O` (centres unmarked) [42 320], the minimum inhibitory concentration (MIC) in assay [1] is 0.125 µg/mL (≈ 0.197 µM); against Klebsiella RO 30 (Klebsiella), not above 0.125 µg/mL; in the assay on Citrobacter RL 49 (Citrobacter), not above 0.125 µg/mL; in assay [2] (Proteus vulgaris) it was not above 0.125 µg/mL; against Enterobacter RO 154 (Enterobacter), not above 0.125 µg/mL; in the assay on Escherichia coli 255 it was 0.0625 µg/mL (≈ 0.0985 µM). Moreover, the MIC in assay [3] was not above 0.0312 µg/mL; in assay [4], 0.125 µg/mL (≈ 0.197 µM); with Escherichia coli SOL 90 (Escherichia coli), not above 0.125 µg/mL; with Escherichia coli 255/L.7, 0.0625 µg/mL (≈ 0.0985 µM); with Pseudomonas RL 112, 4 µg/mL (≈ 6.3 µM); against Serratia RL 72, 0.5 µg/mL (≈ 0.788 µM). For the same compound, in assay [5] (Proteus vulgaris), the minimum inhibitory concentration (MIC) is not above 0.0312 µg/mL.

On to `CC(C)(ON=C(C(=O)NC1C(=O)N2C(C(=O)O)=C(CSC(=O)C3CCCNC3)C[S+]([O-])C12)c1csc(N)n1)C(=O)O` (centres unmarked) [compound 42074], for which the MIC in [1] turned out to be 0.25 µg/mL (≈ 0.398 µM); in the assay on Klebsiella RO 30 (setting [6]), 0.5 µg/mL (≈ 0.795 µM); in the assay on Citrobacter RL 49 (setting [7]), 0.5 µg/mL (≈ 0.795 µM); in assay [2] (setting [8]) it was 0.5 µg/mL (≈ 0.795 µM); in the assay with Enterobacter RO 154 (setting [9]), 8 µg/mL (≈ 12.7 µM); in the assay on Escherichia coli 255, 0.5 µg/mL (≈ 0.795 µM). Also, the minimal inhibitory concentration (MIC) in assay [3] was determined as 0.12 µg/mL (≈ 0.191 µM); in the assay on Escherichia coli SOL 90 (setting [10]), 1 µg/mL (≈ 1.59 µM); in the assay on Escherichia coli 255/L.7, 0.25 µg/mL (≈ 0.398 µM); against Pseudomonas RL 112, 8 µg/mL (≈ 12.7 µM); with Serratia RL 72 it was 4 µg/mL (≈ 6.36 µM); in [5] (setting [11]), 0.5 µg/mL (≈ 0.795 µM).

For the compound `CC(C)(ON=C(C(=O)NC1C(=O)N2C(C(=O)O)=C(CSC(=O)C3CCC(CN)CC3)C[S+]([O-])C12)c1csc(N)n1)C(=O)O` (centres unmarked) [compound 42118], the minimal inhibitory concentration (MIC) in assay [1] is 0.25 µg/mL (≈ 0.381 µM); with Klebsiella RO 30 (setting [6]) it was 0.5 µg/mL (≈ 0.761 µM); with Citrobacter RL 49 (setting [7]) it was 0.5 µg/mL (≈ 0.761 µM); in assay [2] (setting [8]), 0.25 µg/mL (≈ 0.381 µM); in the assay with Enterobacter RO 154 (setting [9]) it was 16 µg/mL (≈ 24.4 µM); with Escherichia coli 255 it was 0.5 µg/mL (≈ 0.761 µM). Also, the MIC in assay [3] came to 0.12 µg/mL (≈ 0.183 µM); in the assay on Escherichia coli SOL 90 (setting [10]) it was 1 µg/mL (≈ 1.52 µM); in the assay on Escherichia coli 255/L.7, 0.25 µg/mL (≈ 0.381 µM); in the assay with Pseudomonas RL 112, 8 µg/mL (≈ 12.2 µM); against Serratia RL 72 it was 4 µg/mL (≈ 6.09 µM); in [5] (setting [11]), 0.5 µg/mL (≈ 0.761 µM).

Consider `CC(N)CCC(=O)OCC1=C(C(=O)O)N2C(=O)C(NC(=O)C(=NOC(C)(C)C(=O)O)c3csc(N)n3)C2[S+]([O-])C1` (centres unmarked) [42 027], for which the MIC in assay [1] was 0.25 µg/mL (≈ 0.416 µM); in the assay with Klebsiella RO 30 (setting [6]) it was 0.25 µg/mL (≈ 0.416 µM); in the assay on Citrobacter RL 49 (setting [7]) it was 0.25 µg/mL (≈ 0.416 µM); in assay [2] (setting [8]), not above 0.12 µg/mL; with Enterobacter RO 154 (setting [9]), 2 µg/mL (≈ 3.33 µM); in the assay with Escherichia coli 255 it was 0.12 µg/mL (≈ 0.2 µM). The minimum inhibitory concentration (MIC) is not above 0.06 µg/mL in [3]; 0.25 µg/mL (≈ 0.416 µM) with Escherichia coli SOL 90 (setting [10]); 0.06 µg/mL (≈ 0.0999 µM) in the assay on Escherichia coli 255/L.7; 4 µg/mL (≈ 6.66 µM) with Pseudomonas RL 112; 0.5 µg/mL (≈ 0.832 µM) in the assay on Serratia RL 72; 0.12 µg/mL (≈ 0.2 µM) in assay [5] (setting [11]).

As to `Cc1c(CN)cccc1C(=O)SCC1=C(C(=O)O)N2C(=O)C(NC(=O)C(=NOC(C)(C)C(=O)O)c3csc(N)n3)C2[S+]([O-])C1` (centres unmarked) [compound 42535], the MIC in [1] is 0.0625 µg/mL (≈ 0.094 µM); in the assay on Klebsiella RO 30 (setting [6]) it was 0.25 µg/mL (≈ 0.376 µM); in the assay with Citrobacter RL 49 (setting [7]), 0.25 µg/mL (≈ 0.376 µM); in [2] (Proteus vulgaris) it was not above 0.125 µg/mL; in the assay on Enterobacter RO 154 (setting [9]), 0.5 µg/mL (≈ 0.752 µM); in the assay on Escherichia coli 255, 0.125 µg/mL (≈ 0.188 µM). Besides, the MIC was 0.125 µg/mL (≈ 0.188 µM) in [3]; 0.125 µg/mL (≈ 0.188 µM) in [4]; 0.5 µg/mL (≈ 0.752 µM) in the assay on Escherichia coli SOL 90 (setting [10]); not above 0.0312 µg/mL in the assay with Escherichia coli 255/L.7; 8 µg/mL (≈ 12 µM) in the assay with Pseudomonas RL 112; 1 µg/mL (≈ 1.5 µM) with Serratia RL 72. Further, the minimal inhibitory concentration (MIC) in assay [5] (Proteus vulgaris) stood at 0.0625 µg/mL (≈ 0.094 µM).

Take `CC(C)(ON=C(C(=O)NC1C(=O)N2C(C(=O)O)=C(CSC(=O)c3cccc(CN)c3)C[S+]([O-])C12)c1csc(N)n1)C(=O)O` (centres unmarked) [compound 42531]: the minimum inhibitory concentration (MIC) is 0.125 µg/mL (≈ 0.192 µM) in [1]; 0.25 µg/mL (≈ 0.384 µM) in the assay with Klebsiella RO 30 (setting [6]); 0.25 µg/mL (≈ 0.384 µM) in the assay with Citrobacter RL 49 (setting [7]); not above 0.125 µg/mL in assay [2] (Proteus vulgaris); 0.5 µg/mL (≈ 0.768 µM) in the assay on Enterobacter RO 154 (setting [9]); 0.125 µg/mL (≈ 0.192 µM) with Escherichia coli 255. The minimum inhibitory concentration (MIC) in assay [3] was determined as 0.0625 µg/mL (≈ 0.096 µM); in the assay with Escherichia coli SOL 90 (setting [10]), 0.5 µg/mL (≈ 0.768 µM); in the assay with Escherichia coli 255/L.7 it was 0.0625 µg/mL (≈ 0.096 µM); in the assay with Pseudomonas RL 112 it was 8 µg/mL (≈ 12.3 µM); against Serratia RL 72, 0.5 µg/mL (≈ 0.768 µM); in assay [5] (Proteus vulgaris), 0.0625 µg/mL (≈ 0.096 µM).

Regarding `CC(C)(O/N=C(\C(=O)NC1C(=O)N2C(C(=O)O)=C(COC(=O)C3(N)CCCC3)C[S+]([O-])C12)c1csc(N)n1)C(=O)O` (centres unmarked) [41 975], the MIC in assay [1] came out at 0.25 µg/mL (≈ 0.408 µM); with Klebsiella RO 30 (setting [6]), 0.5 µg/mL (≈ 0.816 µM); in the assay on Citrobacter RL 49 (setting [7]), 0.5 µg/mL (≈ 0.816 µM); in [2] (setting [8]), 0.5 µg/mL (≈ 0.816 µM); with Enterobacter RO 154 (setting [9]) it was 8 µg/mL (≈ 13.1 µM); in the assay on Escherichia coli 255, 0.5 µg/mL (≈ 0.816 µM). In addition, the MIC is not above 0.12 µg/mL in assay [3]; 0.25 µg/mL (≈ 0.408 µM) in the assay with Escherichia coli SOL 90 (setting [10]); 0.5 µg/mL (≈ 0.816 µM) with Escherichia coli 255/L.7; 8 µg/mL (≈ 13.1 µM) against Pseudomonas RL 112; 4 µg/mL (≈ 6.53 µM) with Serratia RL 72; 0.5 µg/mL (≈ 0.816 µM) in assay [5] (setting [11]).

For orientation: MIC means the lowest concentration found to suppress growth.

The record behind these values is patent US4656166A, “Antibiotic compounds derived from cephalosporins, process for their production and pharmaceutical compositions” (Sanofi, priority 1983, dated 1987).
